Measured values from paper PMC3094704, “S-Petasin, the Main Sesquiterpene of Petasites formosanus, Inhibits Phosphodiesterase Activity and Suppresses Ovalbumin-Induced Airway Hyperresponsiveness” (Evidence-based Complementary and Alternative Medicine : eCAM, 2011).

How the values were obtained:
[1] = test system: PDE1; assay: Inhibition of PDE1 activity (two-step radioenzymatic assay); type: biochemical, guinea pig; details: mean ± SEM (n); read-out: IC50 on PDE isozyme 1
Method: Activities of PDE1–5, partially separated from guinea pig lungs and hearts according to the method described by Ko et al., were measured with a two-step procedure according to the method of Thompson and Appleman, using cAMP with [^3H]-cAMP or cGMP with [^3H]-cGMP as substrates. The enzyme pμreparation (25 μL) was incubated for 30 min at 37°C in a total assay volume of […] containing 50 mM Tris-HCl (pH 7.4), 3 mM MgCl2, 1 mM dithiothreitol, 0.05% BSA, 1 μM cAMP with 0.2 μCi [^3H]-cAMP as a substrate alone or in the presence of 0.1 units calmodulin with 10 μM CaCl2 or 5 μM cGMP, and 1 μM cGMP with 0.2 μCi [^3H]-cGMP as another substrate alone or in the presence of 0.1 units calmodulin with 10 μM CaCl2. In tests of enzyme inhibition, the reaction mixture contained 10 μL of vehicle or inhibitors, at various concentrations of S-petasin or selective PDE1–5 inhibitors, such as vinpocetin [22], EHNA [23], milrinone, Ro 20-1724 [25] and zaprinast, as reference drugs. The reagents and homogenate were mixed on ice, and the reaction was initiated by transferring the mixture to a water bath at 37°C. Following a 30-min incubation, the reaction was stopped by transferring the reaction vessel to a bath of boiling water for 3 min. After cooling on ice, 20 μL of a 1 mg/mL solution of C. atrox snake venom was added to the reaction mixture, and the mixture was incubated at 37°C for 10 min. […]

[2] = Solubility limit of S-petasin in the binding assay; type: physicochemical; details: reaction buffer of binding assay, aqueous buffer; read-out: Highest attainable concentration owing to solubility
[3] = test system: OVA-sensitized and challenged BALB/c mice; assay: Airway hyperresponsiveness in vivo (Penh, whole-body plethysmography); design: species or system mouse
Method: (§1) Ten female BABL/c mice in each group were sensitized by an intraperitoneal (i.p.) injection of 20 μg of OVA emulsified in 2.25 mg aluminum hydroxide gel in a total volume of 100 μL on days 0 and 14. The mice were challenged via the airway by 1% OVA in saline for 30 min on Days 28, 29 and 30 by ultrasonic nebulization. Six weeks after the last of three primary OVA challenges, the mice were exposed to 1% OVA for 30 min by nebulization as a secondary challenge. AHR was assessed on Day 74 (48 h after 1% OVA provocation) in each group. […] For comparison, sham-treated mice were sensitized but challenged with saline instead of 1% OVA (non-challenged). The vehicle, a mixture of alcohol : DMSO : 30% HPβCD : saline (0.5 : 0.5 : 1 : 8 , v/v), or S-petasin was injected at a volume of 0.01 mL/g of body weight. AHR was measured in unrestrained animals by barometric plethysmography using a whole-body plethysmograph (WBP) and analyzed using software of Life Science Suite P3 Analysis Modules (Gould, LDS Test and Measurement LLC, Valley View, OH, USA). The mice were placed into the main chamber of the WBP, and the baseline enhanced pause (P enh) value was determined. Then the mice were nebulized first with phosphate-buffered saline (PBS), and subsequently with increasing doses (6.25–50 mg/mL) of MCh for 3 min for each nebulization, followed by readings of breathing parameters for 3 min after each nebulization with determination of P enh values. Twenty-four hours after the P enh determination, these mice were anesthetized with pentobarbital (50 mg/kg, i.p.), and lavaged via a tracheal tube with PBS (1 × 1.0 mL, 37°C). After lavage, blood was collected from the jugular vein and allowed to sit so that it would coagulate. The collected bronchoalveolar lavage fluid (BALF) and coagulated blood were, respectively, centrifuged at 630 g for 7 min and at 3700 g for 10 min at 4°C, respectively. After centrifugation, the supernatants of BALF and serum were stored at −20°C until the determinations of cytokines, including interleukin (IL)-2, IL-4, IL-5, tumor necrosis factor (TNF)-α and interferon (IFN)-γ by flow cytometric methods using mouse Th1/Th2 cytokine CBA kits, of total immunoglobulin E (IgE), and of total IgG2a using enzyme-linked immunosorbent assay (ELISA) kits (Pharmingen, San Diego, CA, USA) according to the respective recommendations of the manufacturer. OVA-specific IgE was measured as described previously with some modifications. Wells were coated with 100 μL of OVA (20 μg/mL) instead of the capture antibody. Levels are expressed in arbitrary units, where one arbitrary unit equals the optical density of the sample divided by the optical density of unchallenged mouse serum or BALF (standard). The pellet from BALF was re-suspended in ACK lysing buffer (1.658 g NH4Cl, 0.2 g KHCO3 and 1.44 mg EDTA in 200 mL of water) to lyse the residual erythrocytes in each sample. The number of inflammatory cells was counted using a hemocytometer (Hausser Scientific, Horsham, PA, USA). Cytospun slides were stained and differentiated in a blinded fashion by counting at least 100 cells under light microscopy.

[4] = test system: OVA-sensitized and challenged BALB/c mice; assay: IgG2a and IgE in serum and BALF (ELISA); type: in vivo, mouse
Method: as §1

[5] = test system: female BALB/c mice; assay: Xylazine/ketamine-induced anesthesia; type: in vivo, mouse; details: 10–100 μmol/kg s.c., 1 h before anesthesia
Method: According to the method described by Robichaud et al. and modified by us, S-petasin (10–100 μmol/kg, s.c.) or rolipram (0.01–1 μmol/kg, s.c.), a reference drug, was injected into 8–12 week-old female BALB/c mice 1 h or 15 min, respectively, prior to an i.p. injection of xylazine (10 mg/kg)/ketamine (70 mg/kg). The vehicle (control) for S-petasin or for rolipram was a mixture of alcohol : DMSO : 30% HPβCD : saline (0.5 : 0.5 : 1 : 8 , v/v), or alcohol : DMSO : PEG 400 : saline (0.5 : 0.5 : 1 : 8, v/v), respectively. After loss of the righting reflex (i.e., when a mouse remained on its back and no longer spontaneously righted itself to a prone position), the duration of anesthesia was measured until its return as an endpoint.

Compound: C=C(C)[C@@H]1C[C@@]2(C)C(=CC1=O)CC[C@@H](OC(=O)/C=C\SC)[C@@H]2C [S-Petasin]
- IC50 [1]: > 100 µM
- solubility [2]: ≤ 300 µM
- Penh value at the baseline ([3]; 10 μmol/kg s.c.): 3.19 ± 0.47
- Penh value of PBS nebulization ([3]; 10 μmol/kg s.c.): 2.99 ± 0.22
- Penh value at the baseline ([3]; 30 μmol/kg s.c.): 3.13 ± 0.32
- Penh value of PBS nebulization ([3]; 30 μmol/kg s.c.): 3.02 ± 0.23
- Enhancement of the Penh value induced by MCh ([3]; 10–30 μmol/kg s.c., MCh at 50 mg/mL): dose-dependently and significantly attenuated
- Reduction of total IgG2a level in the serum ([4]; 30 μmol/kg s.c.): significantly reversed
- Enhancement of total IgE in the BALF ([4]; 30 μmol/kg s.c., exception at 10 μmol/kg): dose-dependently and significantly suppressed
- Enhancement of OVA-specific IgE in the BALF ([4]; 10–30 μmol/kg s.c.): dose-dependently and significantly suppressed
- Enhancement of OVA-specific IgE in the serum ([4]; 10–30 μmol/kg s.c.): dose-dependently and significantly suppressed
- Enhancement of total IgE in the serum ([4]; 10–30 μmol/kg s.c.): dose-dependently and significantly suppressed
- Duration of xylazine/ketamine-induced anesthesia [5]: did not affect
